Read-outs that look alike come from different tables or passages of the source.
Experiments:
[1] = test system: HSV-1 strain F or KOS; experiment: Inhibition of herpes simplex virus (HSV-1) replication in cell culture (BHK-21 cells, glycoprotein C ELISA); format: cell-based
How it was run: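 Replication readout: ELISA for HSV-1 late glycoprotein C (mAb C11, peroxidase-OPD, 450 nm) on glutaraldehyde-fixed cells. Monolayers (~50,000 cells/well) were infected with strain F or KOS (MOI 0.05 PFU/cell), then incubated 24 h at 37° with compound in 2% FBS α-MEM. EC50 derived from % inhibition.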

[2] = test system: HCMV (strain AD169); experiment: Inhibition of HCMV replication, ELISA assay (Hs-68 cells); format: cell-based, Human Cytomegalovirus (HCMV); conditions: read-out: ELISA CMV EC50
Description: (§1) C) Inhibition of Human Cytomegalovirus (HCMV) Replication
(§2) The effect of compounds on the replication of HCMV has been measured by using an ELISA-based assay (ELISA) and a plaque reduction assay (PRA).
Hs-68 cells (ATCC # CRL 1635) were seeded in 96 well microtiter plates at 10,000 cells/well in 100 μL of DMEM medium (Gibco Canada Inc.) supplemented with 10% fetal bovine serum (FBS, Gibco Canada Inc.). The plates were incubated for 3 days at 37° to allow the cells to reach 80-90% confluency prior to the assay.
The medium was removed from wells by aspiration. The cells then were infected at a multiplicity of infection (MOI) of 0.01 PFU/cell with 50 μL of HCMV (strain AD169, ATCC VR-538) in DMEM medium supplemented with 5% heat inactivated FBS (assay medium). The virus was allowed to adsorb to cells for 2 h at 37°. Following viral adsorption, the medium was removed from the wells by aspiration. The cells were washed twice with 200 μL of assay medium to remove unabsorbed virus. The cells were then incubated with or without 100 μL of appropriate concentrations of test reagent in assay medium. After 8 days of incubation at 37°, the extent of viral replication was determined by an ELISA assay which detects the late structural protein p28 of HCMV.
Eight days after infection, the medium was aspirated from the wells. Non-specific binding sites were blocked by adding 200 μL of phosphate buffered saline containing 1% (w/v) bovine serum albumin (blocking buffer) to each well and incubating the plates for 30 min at room temperature. After removal of the blocking buffer by aspiration, the cells were fixed with 100 μL of cold ethanol-acetone solution (95:5) per well. The plates were placed at -20° for 30 min. The plates were washed 4 times with phosphate buffered saline containing 0.05% (v/v) polyoxyethylene sorbitan monolaurate (Tween®). Thereafter, 100 μL of mAb UL99 (Advanced Biotechnologies Inc., #13-130-100) recognizing HCMV protein p28 was added to each wells and plates were incubated for 2 h at room temperature. The plates were washed four times with 200 μL of the above-noted phosphate buffered saline/Tween-20® solution. The cells were then incubated with 100 μL of sheep anti-mouse IgGγ horseradish peroxidase conjugated for 2 h at room temperature. The plates were then washed four times with 200 μL of above-noted phosphate buffered saline/Tween-20® solution. Thereafter, 100 μL of ortho phenylenediamine dihydrochloride (OPD, Gibco Canada Inc.) solution was added to each well and the plates were agitated on a microplate shaker for 30 min in the dark. Color development was monitored at 450 nm using a microplate spectrophotometer.
The SAS program was used to calculate the % inhibition of viral replication and to generate EC50 values.
The EC50 values obtained according to this assay method for certain thiazolylphenyl derivatives of this invention are listed in the following tables under the heading ELISA CMV.

[3] = test system: HCMV (strain AD169); experiment: Inhibition of HCMV replication, plaque reduction assay (PRA, Hs-68 cells); format: cell-based, Human Cytomegalovirus (HCMV); conditions: read-out: PRA CMV EC50
Description: as §1, §2
(§3) Hs-68 cells (ATCC # CRL 1635) were seeded in 12-well plates at 83,000 cells/well in 1 mL of DMEM medium (Gibco Canada Inc.) supplemented with 10% fetal bovine serum (FBS, Gibco Canada Inc.). The plates were incubated for 3 days at 37° to allow the cells to reach 80-90% confluency prior to the assay.
(§4) The medium was removed from the cells by aspiration. The cells were then infected with approximately 50 PFU of HCMV (strain AD169, ATCC VR-538) in DMEM medium supplemented with 5% inactivated FBS (assay medium). The virus was allowed to adsorb to cells for 2 h at 37°. Following viral adsorption, the medium was removed from the wells by aspiration. The cells were then incubated with or without 1 mL of appropriate concentrations of test reagent in assay medium. After 4 days of incubation at 37°, the medium was exchanged with fresh medium containing test compound and 4 days later the cells were fixed with 1% aqueous formaldehyde and stained with a 2% crystal violet solution in 20% ethanol in water. Microscopic plaques were counted using a stereomicroscope. Drug effects were calculated as a percent reduction in the number of plaques in the presence of each drug concentration compared to the number observed in the absence of drug. Ganciclovir was used as a positive control in all experiments.
(§5) The EC50 values obtained according to this assay for certain thiazolyl derivatives of this invention are listed in the following tables under the heading PRA CMV.

[4] = molecular target: T1, HSV-1 helicase-primase (Human herpesvirus 1, UniProt P10189+P10236); experiment: HSV-1 DNA-dependent ATPase assay (inhibition of HSV-1 helicase-primase); format: biochemical
T1 construct: made in house; host or cells: Sf21 insect cells triply infected with recombinant baculoviruses (UL5, UL8, UL52)
How it was run: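 ATP hydrolysis was measured as inorganic phosphate (malachite green/molybdate, 650 nm) after 20 min at 34°. Reaction: 3 μg/mL purified Sf21-expressed UL5/UL8/UL52 helicase-primase, 25 μM single-stranded M13 DNA hybridized to 68-mer, 4 mM ATP, pH 7.5 HEPES buffer, 3.3% DMSO. Net absorbance change with and without inhibitor gave DNA-dependent ATPase activity.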

[5] = Inhibition of HCMV replication, plaque reduction assay (PRA, Hs-68 cells); format: cell-based, Human Cytomegalovirus (HCMV); conditions: human, read-out: Cytotoxic at this concentration (footnote *, PRA CMV)
Description: as §1, §2, §3, §4, §5

[6] = Human betaherpesvirus 5, AD169, Hs68, Group 1 Table 6 entries
[7] = Human alphaherpesvirus 1, BHK-21, Group 2 Table 1 entries
[8] = Human betaherpesvirus 5, AD169, Hs68, Group 2 Table 1 entries
[9] = Human alphaherpesvirus 1, BHK-21, Group 1 Table 2 entries
[10] = Human betaherpesvirus 5, AD169, Hs68, Group 1 Table 2 entries
[11] = Human alphaherpesvirus 1, BHK-21, Group 1 Table 1 entries
[12] = Human betaherpesvirus 5, AD169, Hs68, Group 1 Table 1 entries

T1 sequence (P10192 whole entry): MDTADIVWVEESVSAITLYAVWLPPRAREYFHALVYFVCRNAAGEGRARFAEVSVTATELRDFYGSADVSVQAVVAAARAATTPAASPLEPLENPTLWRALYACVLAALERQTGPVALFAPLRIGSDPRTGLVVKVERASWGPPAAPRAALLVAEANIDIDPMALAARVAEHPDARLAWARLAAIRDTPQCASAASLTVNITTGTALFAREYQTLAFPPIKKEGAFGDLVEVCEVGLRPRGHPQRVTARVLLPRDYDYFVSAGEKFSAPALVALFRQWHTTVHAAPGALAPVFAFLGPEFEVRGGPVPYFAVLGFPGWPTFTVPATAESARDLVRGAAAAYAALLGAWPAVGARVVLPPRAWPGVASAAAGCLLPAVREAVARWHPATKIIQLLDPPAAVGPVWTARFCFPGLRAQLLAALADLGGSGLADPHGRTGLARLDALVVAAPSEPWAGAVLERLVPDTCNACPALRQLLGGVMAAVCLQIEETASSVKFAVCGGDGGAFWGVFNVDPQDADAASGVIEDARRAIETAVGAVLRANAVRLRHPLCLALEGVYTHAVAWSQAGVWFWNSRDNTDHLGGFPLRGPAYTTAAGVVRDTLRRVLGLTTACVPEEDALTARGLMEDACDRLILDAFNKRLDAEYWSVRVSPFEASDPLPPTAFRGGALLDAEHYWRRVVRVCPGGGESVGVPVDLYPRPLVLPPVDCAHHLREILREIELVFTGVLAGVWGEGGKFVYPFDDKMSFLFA
T1 sequence (P10236 whole entry): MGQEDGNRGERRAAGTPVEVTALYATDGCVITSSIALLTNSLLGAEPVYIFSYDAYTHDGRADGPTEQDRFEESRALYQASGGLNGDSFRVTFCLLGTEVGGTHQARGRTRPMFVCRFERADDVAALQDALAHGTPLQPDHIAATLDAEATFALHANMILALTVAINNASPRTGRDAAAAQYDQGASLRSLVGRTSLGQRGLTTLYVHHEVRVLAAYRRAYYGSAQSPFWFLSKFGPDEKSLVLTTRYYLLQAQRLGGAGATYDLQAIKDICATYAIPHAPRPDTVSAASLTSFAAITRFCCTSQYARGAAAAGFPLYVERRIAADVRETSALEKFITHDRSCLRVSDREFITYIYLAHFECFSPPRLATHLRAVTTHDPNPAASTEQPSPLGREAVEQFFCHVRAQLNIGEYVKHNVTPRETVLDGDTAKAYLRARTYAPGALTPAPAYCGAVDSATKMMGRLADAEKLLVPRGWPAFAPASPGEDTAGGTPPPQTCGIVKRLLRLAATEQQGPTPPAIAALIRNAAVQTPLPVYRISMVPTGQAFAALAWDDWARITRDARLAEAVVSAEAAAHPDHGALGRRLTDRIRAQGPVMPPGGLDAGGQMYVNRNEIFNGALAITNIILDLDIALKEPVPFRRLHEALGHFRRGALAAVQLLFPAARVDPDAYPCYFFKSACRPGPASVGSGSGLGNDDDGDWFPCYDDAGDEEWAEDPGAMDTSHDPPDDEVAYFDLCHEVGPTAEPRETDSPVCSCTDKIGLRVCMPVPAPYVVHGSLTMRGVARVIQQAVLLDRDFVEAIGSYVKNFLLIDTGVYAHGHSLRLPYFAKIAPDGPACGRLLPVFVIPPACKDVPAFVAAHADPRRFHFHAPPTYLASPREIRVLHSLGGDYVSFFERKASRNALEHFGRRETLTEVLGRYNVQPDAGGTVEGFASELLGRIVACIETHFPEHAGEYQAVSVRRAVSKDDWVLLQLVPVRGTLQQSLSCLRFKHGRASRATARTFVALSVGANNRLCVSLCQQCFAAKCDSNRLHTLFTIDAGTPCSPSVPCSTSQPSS
T1 sequence (P10189 whole entry): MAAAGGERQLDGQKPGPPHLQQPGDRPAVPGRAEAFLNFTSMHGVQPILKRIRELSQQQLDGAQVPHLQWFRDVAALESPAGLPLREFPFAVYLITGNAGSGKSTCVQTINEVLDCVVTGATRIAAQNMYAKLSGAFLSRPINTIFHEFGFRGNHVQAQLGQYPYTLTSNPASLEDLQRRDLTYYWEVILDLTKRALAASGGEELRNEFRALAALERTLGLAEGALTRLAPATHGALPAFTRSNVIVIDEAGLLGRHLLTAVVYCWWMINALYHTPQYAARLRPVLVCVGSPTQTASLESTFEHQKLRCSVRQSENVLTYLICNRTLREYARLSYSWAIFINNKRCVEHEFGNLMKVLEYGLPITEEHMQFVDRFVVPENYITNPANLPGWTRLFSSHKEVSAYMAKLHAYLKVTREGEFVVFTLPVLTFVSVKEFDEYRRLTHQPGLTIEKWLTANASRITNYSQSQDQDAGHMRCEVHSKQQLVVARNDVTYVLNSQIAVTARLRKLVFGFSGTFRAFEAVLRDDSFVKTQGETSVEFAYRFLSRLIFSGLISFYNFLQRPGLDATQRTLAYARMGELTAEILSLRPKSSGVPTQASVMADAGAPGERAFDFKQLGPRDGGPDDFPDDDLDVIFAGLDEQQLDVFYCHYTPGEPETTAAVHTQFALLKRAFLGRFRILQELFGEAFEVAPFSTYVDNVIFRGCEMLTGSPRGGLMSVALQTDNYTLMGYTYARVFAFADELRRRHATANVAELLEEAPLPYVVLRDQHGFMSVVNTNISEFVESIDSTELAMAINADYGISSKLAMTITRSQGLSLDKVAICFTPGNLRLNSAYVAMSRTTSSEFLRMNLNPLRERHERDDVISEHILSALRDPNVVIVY

Compound | EC50 [3, 8] [nM] | IC50 ([4]; Group 2 Table 1 entries) [nM] | MCC at 192 h ([5]; Group 2 Table 1 entries) [µM] | EC50 [1, 11] [nM] | IC50 ([4]; Group 1 Table 1 entries) [nM] | EC50 [2, 12] [nM] | also measured
Nc1nc(-c2ccc(NC(=O)[C@H]3CCC(=O)N3Cc3ccccc3)cc2)cs1 [Example 1] | – | – | – | – | – | – | EC50 ([1]; Human alphaherpesvirus 1, BHK-21, Group 1 Table 6 entries): 3400 nM; EC50 [2, 6]: 250 nM; EC50 [3, 6]: 80000 nM
CCCCNC(=O)Nc1ccc(-c2csc(N)n2)cc1 [Example 2] | 12000 | – | – | – | – | – | EC50 [1, 7]: 3500 nM; EC50 [2, 8]: 600 nM
Nc1nc(-c2ccc(NC(=O)NCCc3ccccn3)cc2)cs1 [Example 3] | > 93000 | 5200 | 93 | – | – | – | EC50 [1, 7]: 3600 nM
CN(CCc1ccccn1)C(=O)[C@H](Cc1ccccc1)NC(=O)Nc1ccc(-c2csc(N)n2)cc1 [Example 9] | 36000 | – | – | – | – | – | EC50 [1, 7]: 2900 nM; EC50 [2, 8]: 4100 nM
Nc1nc(-c2ccc(NC(=O)CCNC3CCc4ccccc43)cc2)cs1 (stereo not shown) [Example 9] | – | – | – | – | – | – | EC50 [1, 9]: 950 nM; EC50 [2, 10]: 6000 nM; EC50 [3, 10]: > 10400 nM
Nc1nc(-c2ccc(NC(=O)NCCCn3ccnc3)cc2)cs1 [Example 10] | > 48000 | 4700 | 48 | – | – | – | –
Nc1nc(-c2ccc(NC(=O)CCN(C(=O)c3cccnc3)C3CCc4ccccc43)cc2)cs1 (stereo not shown) [Example 11] | – | – | – | – | – | – | EC50 [1, 9]: 4000 nM; EC50 [2, 10]: 15000 nM; EC50 [3, 10]: 20000 nM
Nc1nc(-c2ccc(NC(=O)CNCc3ccccn3)cc2)cs1 [Example 12] | – | – | – | 1500 | 8000 | – | EC50 [3, 12]: 84000 nM; MCC at 192 h ([5]; Group 1 Table 1 entries): 84 µM
Nc1nc(-c2ccc(NC(=O)NCCN(Cc3ccccc3)Cc3ccccc3)cc2)cs1 [Example 16] | > 5000 | 1600 | 5 | – | – | – | –
Nc1nc(-c2ccc(NC(=O)NCc3ccccc3)cc2)cs1 [Example 20] | > 45000 | 900 | 45 | – | – | – | –
Nc1nc(-c2ccc(NC(=O)NCc3ccc(Cl)cc3)cc2)cs1 [Example 21] | > 1000 | 7200 | 1 | – | – | – | –
Nc1nc(-c2ccc(NC(=O)NCc3cccc(F)c3)cc2)cs1 [Example 22] | > 8000 | 1300 | 8 | – | – | – | –
Nc1nc(-c2ccc(NC(=O)NCc3ccccc3F)cc2)cs1 [Example 23] | > 4000 | 2000 | 4 | – | – | – | –
Nc1nc(-c2ccc(NC(=O)NCCc3ccc(F)cc3)cc2)cs1 [Example 24] | > 5000 | 30000 | 5 | – | – | – | –
CN(C)c1ccc(CNC(=O)Nc2ccc(-c3csc(N)n3)cc2)cc1 [Example 25] | > 18000 | 2900 | 18 | – | – | – | –
C[C@H](NC(=O)Nc1ccc(-c2csc(N)n2)cc1)c1ccccc1 [Example 26] | > 74000 | 590 | 74 | – | – | – | –

Compound | EC50 [3, 8] [nM] | IC50 ([4]; Group 2 Table 1 entries) [nM] | MCC at 192 h ([5]; Group 2 Table 1 entries) [µM] | EC50 [1, 11] [nM] | IC50 ([4]; Group 1 Table 1 entries) [nM] | EC50 [2, 12] [nM] | also measured
Nc1nc(-c2ccc(NC(=O)CN(Cc3ccncc3)C(=O)c3ccc(F)cc3)cc2)cs1 [Example 73] | – | – | – | 17 | 88 | 12600 | –
Nc1nc(-c2ccc(NC(=O)CN(CC3CCCCC3)C(=O)CC3CCCCC3)cc2)cs1 [Example 76] | – | – | – | 160 | 80 | 25000 | –
COC(=O)N(CC(=O)Nc1ccc(-c2csc(N)n2)cc1)Cc1ccccc1 [Example 87] | – | – | – | 1100 | 2800 | 18000 | –
C[C@H](c1ccccc1)N(CC(=O)Nc1ccc(-c2csc(N)n2)cc1)C(=O)OC(C)(C)C [Example 88] | – | – | – | 1200 | 2400 | > 47000 | –
CC(C)(C)OC(=O)N(CC(=O)Nc1ccc(-c2csc(N)n2)cc1)Cc1ccc(Cl)cc1 [Example 91] | – | – | – | 25 | 70 | 1600 | –
CN(C)c1cccc2c(S(=O)(=O)N(CC(=O)Nc3ccc(-c4csc(N)n4)cc3)Cc3ccccc3)cccc12 [Example 98] | – | – | – | 2100 | 500 | > 2000 | –
CC(C)(C)OC(=O)N(CCc1ccccn1)CC(=O)Nc1ccc(-c2csc(N)n2)cc1 [Example 101] | – | – | – | 740 | 2200 | 1900 | –
Nc1nc(-c2ccc(NC(=O)CN(CCC3CCCCC3)C(=O)C3CCCCC3)cc2)cs1 [Example 103] | – | – | – | 240 | 150 | > 41000 | –
CN(C)S(=O)(=O)N(CC(=O)Nc1ccc(-c2csc(N)n2)cc1)Cc1ccccc1 [Example 106] | – | – | – | 160 | 1000 | > 6000 | –
Nc1nc(-c2ccc(NC(=O)CN(CC3CCCCC3)S(=O)(=O)N3CCOCC3)cc2)cs1 [Example 107] | – | – | – | 830 | – | – | MCC at 192 h ([5]; Group 1 Table 1 entries): 12 µM
Nc1nc(-c2ccc(NC(=O)CN(Cc3ccccc3)C(=O)OCc3ccccc3)cc2)cs1 [Example 109] | – | – | – | 200 | 310 | > 20000 | –
CC(C)CN(CC(=O)Nc1ccc(-c2csc(N)n2)cc1)C(=O)OCc1ccccc1 [Example 110] | – | – | – | 1600 | 3200 | > 40000 | –
Nc1nc(-c2ccc(NC(=O)CN(Cc3ccccc3)C(=O)Cc3cccnc3)cc2)cs1 [Example 113] | – | – | – | – | 2000 | – | EC50 [3, 12]: > 50000 nM; MCC at 192 h ([5]; Group 1 Table 1 entries): 50 µM
CCCC(CCC)N(CC(=O)Nc1ccc(-c2csc(N)n2)cc1)C(=O)OCc1ccccc1 [Example 141] | – | – | – | 3500 | 4000 | > 121000 | –
CC(C)(C)CN(CC(=O)Nc1ccc(-c2csc(N)n2)cc1)C(=O)OC(C)(C)C [Example 142] | – | – | – | 2400 | 6300 | 4000 | –
Nc1nc(-c2ccc(NC(=O)CN(Cc3ccccc3)S(=O)(=O)NCc3ccccc3)cc2)cs1 [Example 143] | – | – | – | 1000 | 800 | > 64000 | –
